Reference: patent publication US10774080B2, “Pyrimidine compound as JAK kinase inhibitor” (THERAVANCE BIOPHARMA R&D IP, LLC, priority 2017, dated 2020)

Columns and labels:
CCL2 gene expression = test: Assay 7: ex vivo JAK PD assay, freshly excised human skin, CCL2; conditions: 0.5% ointment, about 40 hours continuous exposure, Th1-skewed stimulation (TNFα, IFNγ, IL-12), vs vehicle
Experimental: Assay 7: Ex Vivo JAK Pharmacodynamic (PD) Assay Using Human Freshly Excised Skin An ex vivo JAK pharmacodynamics (PD) assay was conducted using human isolated skin tissue. The PD assay used fresh human skin (dermatome of 750 μm thickness) that was mounted in static Franz cells with a surface area of ˜0.5 cm^2. The receiver chambers of the Franz cells were filled with warm (37° C.) cornification media and placed in an incubator at 37° C. The skin was topically dosed with 10 μL ([…]) of compound (I) or vehicle and was left undisturbed overnight (˜24 hours). The next day, with no re-application of the test compound or vehicle, the media was replaced with a Th1-skewed stimulation cocktail consisting of TNFα, IFNγ and IL-12. The skin was left undisturbed for an additional 16 hours, and then harvested and processed for RNA extraction and qPCR of biomarkers: CXCL10, CCL2. GAPDH was used as an internal standard. The compound (I) was formulated in an ointment formulation at 0.5% strength. A total of three skin donors (tested in quadruplicates/sample/treatment) were used. Treatment effect was calculated as the percent increase or decrease in stimulation compared to the vehicle group. [table]

[1] = system: IL-2 stimulated STAT5 phosphorylation in Tall-1 human T cell line; test: Assay 11: inhibition of IL-2 stimulated pSTAT5 in Tall-1 T cells; assay type: cell-based; conditions: read-out: pIC50 for inhibition of IL-2 induced STAT5 phosphorylation (converted)
Experimental: Assay 11: Inhibition of IL-2 Stimulated pSTAT5 in Tall-1 T Cells
The potency of test compounds for inhibition of interleukin-2 (IL-2) stimulated STAT5 phosphorylation was measured in the Tall-1 human T cell line (DSMZ) using AlphaLisa. Because IL-2 signals through JAK1/3, this assay provides a measure of JAK1/3 cellular potency.
Phosphorylated STAT5 was measured via the AlphaLISA SureFire Ultra pSTAT5 (Tyr694/699) kit (PerkinElmer).
Human T cells from the Tall-1 cell line were cultured in a 37° C., 5% CO2 humidified incubator in RPMI (Life Technologies) supplemented with 15% Heat Inactivated Fetal Bovine Serum (FBS, Life Technologies), 2 mM Glutamax (Life Technologies), 25 mM HEPES (Life Technologies) and 1× Pen/Strep (Life Technologies). […] Phosphorylated STAT5 was measured via the pSTAT5 AlphaLisa kit (PerkinElmer). […] Luminescence was measured with excitation at 689 nm and emission at […] using an EnVision plate reader (PerkinElmer) under green filtered <100 lux light.
To determine the inhibitory potency of test compounds in response to IL-2, the average emission intensity of beads bound to pSTAT5 was measured in a human T cell line. IC50 values were determined from analysis of the inhibition curves of signal intensity versus compound concentration. Data are expressed as pIC50 (negative decadic logarithm IC50) values (mean±standard deviation).

CCS(=O)(=O)N1[C@@H]2CCC[C@H]1C[C@H](N(C)c1nc(CO)c(F)c(Nc3cc(C)[nH]n3)n1)C2 [Compound (I), (2-(((1R,3s,5S)-9-(ethylsulfonyl)-9-azabicyclo[3.3.1]nonan-3-yl)(methyl)amino)-5-fluoro-6-((5-methyl-1H-pyrazol-3-yl)amino)pyrimidin-4-yl)methanol]
PD-% Inhibition (mean ± SD) CCL2 (CCL2 gene expression): 61.3% | IC50 [1]: 3.98 nM
